This note sets out measurements from patent US8580762B2, “Substituted purine and 7-deazapurine compounds” (Epizyme, Inc., priority 2010, dated 2013).

Usually IC50 stands for the concentration needed to halve the response being measured.

The structures appear in SMILES notation.

Sequence of DOT1L(1-416) (Q8TEK3 1-416): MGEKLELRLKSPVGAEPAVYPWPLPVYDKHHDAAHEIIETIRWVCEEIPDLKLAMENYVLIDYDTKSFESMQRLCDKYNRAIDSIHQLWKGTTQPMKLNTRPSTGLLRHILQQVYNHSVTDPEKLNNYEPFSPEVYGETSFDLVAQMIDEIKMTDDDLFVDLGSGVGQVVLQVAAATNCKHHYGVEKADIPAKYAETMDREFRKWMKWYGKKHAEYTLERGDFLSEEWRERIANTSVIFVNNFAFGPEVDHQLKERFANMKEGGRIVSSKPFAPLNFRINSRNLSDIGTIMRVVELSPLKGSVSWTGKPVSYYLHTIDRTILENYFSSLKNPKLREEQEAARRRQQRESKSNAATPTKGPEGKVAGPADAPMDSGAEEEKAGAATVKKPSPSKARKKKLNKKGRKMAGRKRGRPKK

The target in this experiment is DOT1L(1-416) (Homo sapiens, UniProt Q8TEK3). Put plainly: Determination of IC50: DOT1L(1-416) methyltransferase assay, 3H-SAM, oligonucleosome substrate, Flashplate. In kind it is biochemical. The following applies: class symbols; read-out: DOT1L IC50. In a few lines:
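Compounds in 10-point 3-fold DMSO dilutions were tested in reactions started with substrate mix of 200 nM [3H]-SAM, 600 nM unlabeled SAM and 20 nM oligonucleosome. Reactions ran 120 min at room temperature and were quenched with 100 μM SAM. Labeled substrate was captured on streptavidin Flashplates and counted by scintillation to give IC50.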
Take `CC(C)N(C[C@H]1O[C@@H](n2cnc3c(N)ncnc32)[C@H](O)[C@@H]1O)C1CC(CCc2nc3cc(C(C)(C)C#N)ccc3[nH]2)C1` (stereo partly drawn) [Compound 120, 2-(2-(2-(3-((((2R,3S,4R,5R)-5-(6-amino-9H-purin-9-yl)-3,4-dihydroxytetrahydro-furan-2-yl)methyl)(isopropyl)amino)cyclobutyl)ethyl)-1H-benzo[d]imidazol-5-yl)-2-methylpropanenitrile]: the IC50 is less than 100 nM.
Next, `COCC(C)(C)c1ccc2[nH]c(CC[C@H]3C[C@H](N(C[C@H]4O[C@@H](n5cnc6c(N)ncnc65)[C@H](O)[C@@H]4O)C(C)C)C3)nc2c1` [Compound 121, (2R,3R,4S,5R)-2-(6-amino-9H-purin-9-yl)-5-((isopropyl((1s,3R)-3-(2-(5-(1-methoxy-2-methylpropan-2-yl)-1H-benzo[d]imidazol-2-yl)ethyl)cyclobutyl)amino)methyl) tetrahydrofuran-3,4-diol]: less than 100 nM.
`COCC(C)(C)c1ccc2[nH]c(CC[C@H]3C[C@@H](N(C[C@H]4O[C@@H](n5cnc6c(N)ncnc65)[C@H](O)[C@@H]4O)C(C)C)C3)nc2c1` [Compound 122, (2R,3R,4S,5R)-2-(6-amino-9H-purin-9-yl)-5-((isopropyl((1r,3S)-3-(2-(5-(1-methoxy-2-methylpropan-2-yl)-1H-benzo[d]imidazol-2-yl)ethyl)cyclobutyl)amino)methyl) tetrahydrofuran-3,4-diol]: the half-inhibitory concentration (IC50) is less than 100 nM.
In the case of `CC(C)N(C[C@H]1O[C@@H](n2cnc3c(N)ncnc32)[C@H](O)[C@@H]1O)[C@H]1C[C@H](CCc2nc3cc(CC(F)(F)F)ccc3[nH]2)C1` [Compound 123, (2R,3R,4S,5R)-2-(6-amino-9H-purin-9-yl)-5-((isopropyl((1s,3R)-3-(2-(5-(2,2,2-trifluoroethyl)-1H-benzo[d]imidazol-2-yl)ethyl)cyclobutyl)amino)methyl) tetrahydrofuran-3,4-diol] it was less than 100 nM; in that of `CC(C)N(C[C@H]1O[C@@H](n2cnc3c(N)ncnc32)[C@H](O)[C@@H]1O)[C@H]1C[C@@H](CCc2nc3cc(CC(F)(F)F)ccc3[nH]2)C1` [Compound 124, (2R,3R,4S,5R)-2-(6-amino-9H-purin-9-yl)-5-((isopropyl((1r,3S)-3-(2-(5-(2,2,2-trifluoroethyl)-1H-benzo[d]imidazol-2-yl)ethyl)cyclobutyl)amino)methyl) tetrahydrofuran-3,4-diol], less than 100 nM; in that of `CC(C)N(C[C@H]1O[C@@H](n2cnc3c(N)ncnc32)[C@H](O)[C@@H]1O)[C@H]1C[C@@H](CCc2nc3cc(C(C)(C)C#N)ccc3[nH]2)C1` [Compound 128, 2-(2-(2-((1S,3r)-3-((((2R,3S,4R,5R)-5-(6-amino-9H-purin-9-yl)-3,4-dihydroxytetrahydro-furan-2-yl)methyl)(isopropyl)amino)cyclobutyl)ethyl)-1H-benzo[d]imidazol-5-yl)-2-methylpropanenitrile], less than 100 nM.
Next, `CC(C)N(C[C@H]1O[C@@H](n2cnc3c(N)ncnc32)[C@H](O)[C@@H]1O)[C@H]1C[C@H](CCc2nc3cc(C(C)(C)C#N)ccc3[nH]2)C1` [Compound 129, 2-(2-(2-((1R,3s)-3-((((2R,3S,4R,5R)-5-(6-amino-9H-purin-9-yl)-3,4-dihydroxytetrahydro-furan-2-yl)methyl)(isopropyl)amino)cyclobutyl)ethyl)-1H-benzo[d]imidazol-5-yl)-2-methylpropanenitrile]: less than 100 nM; `CN(C[C@H]1O[C@@H](n2cnc3c(N)ncnc32)[C@H](O)[C@@H]1O)C1CC(CCc2nc3cc(C4(C#N)CC4)ccc3[nH]2)C1` (stereo partly drawn) [Compound 130, 1-(2-(2-(3-((((2R,3S,4R,5R)-5-(6-amino-9H-purin-9-yl)-3,4-dihydroxytetrahydro-furan-2-yl)methyl)(methyl)amino)cyclobutyl)ethyl)-1H-benzo[d]imidazol-5-yl)cyclo-propanecarbonitrile]: less than 100 nM.
Next, `CN(C[C@H]1O[C@@H](n2cnc3c(N)ncnc32)[C@H](O)[C@@H]1O)[C@H]1C[C@@H](CCc2nc3cc(C4CCC4)ccc3[nH]2)C1` [Compound 131, (2R,3R,4S,5R)-2-(6-amino-9H-purin-9-yl)-5-((((1r,3S)-3-(2-(5-cyclobutyl-1H-benzo[d]imidazol-2-yl)ethyl)cyclobutyl) (methyl)amino)methyl) tetrahydrofuran-3,4-diol]: less than 100 nM; `CN(C[C@H]1O[C@@H](n2cnc3c(N)ncnc32)[C@H](O)[C@@H]1O)[C@H]1C[C@H](CCc2nc3cc(C4CCC4)ccc3[nH]2)C1` [Compound 132, (2R,3R,4S,5R)-2-(6-amino-9H-purin-9-yl)-5-((((1s,3R)-3-(2-(5-cyclobutyl-1H-benzo[d]imidazol-2-yl)ethyl)cyclobutyl) (methyl)amino)methyl) tetrahydrofuran-3,4-diol]: less than 100 nM; `CN(C[C@H]1O[C@@H](n2cnc3c(N)ncnc32)[C@H](O)[C@@H]1O)[C@H]1C[C@@H](CCc2nc3cc(C4CC4)ccc3[nH]2)C1` [Compound 133, (2R,3R,4S,5R)-2-(6-amino-9H-purin-9-yl)-5-((((1r,3S)-3-(2-(5-cyclopropyl-1H-benzo[d]imidazol-2-yl)ethyl)cyclobutyl) (methyl)amino)methyl) tetrahydrofuran-3,4-diol]: less than 100 nM.
For `CN(C[C@H]1O[C@@H](n2cnc3c(N)ncnc32)[C@H](O)[C@@H]1O)[C@H]1C[C@H](CCc2nc3cc(C4CC4)ccc3[nH]2)C1` [Compound 134, (2R,3R,4S,5R)-2-(6-amino-9H-purin-9-yl)-5-((((1s,3R)-3-(2-(5-cyclopropyl-1H-benzo[d]imidazol-2-yl)ethyl)cyclobutyl) (methyl)amino)methyl) tetrahydrofuran-3,4-diol], the IC50 was less than 100 nM.
As to `CC(C)N(C[C@H]1O[C@@H](n2cnc3c(N)ncnc32)[C@H](O)[C@@H]1O)[C@H]1C[C@@H](CCc2nc3cc(C4(C#N)CC4)ccc3[nH]2)C1` [Compound 135, 1-(2-(2-((1S,3r)-3-((((2R,3S,4R,5R)-5-(6-amino-9H-purin-9-yl)-3,4-dihydroxytetrahydro-furan-2-yl)methyl)(isopropyl)amino)cyclobutyl)ethyl)-1H-benzo[d]imidazol-5-yl)cyclo-propanecarbonitrile], the IC50 was less than 100 nM.
Turning to `CC(C)N(C[C@H]1O[C@@H](n2cnc3c(N)ncnc32)[C@H](O)[C@@H]1O)[C@H]1C[C@H](CCc2nc3cc(C4(C#N)CC4)ccc3[nH]2)C1` [Compound 136, 1-(2-(2-((1R,3s)-3-((((2R,3S,4R,5R)-5-(6-amino-9H-purin-9-yl)-3,4-dihydroxytetrahydro-furan-2-yl)methyl)(isopropyl)amino)cyclobutyl)ethyl)-1H-benzo[d]imidazol-5-yl)cyclo-propanecarbonitrile], the IC50 is less than 100 nM.
In the case of `CN(C[C@H]1O[C@@H](n2cnc3c(N)ncnc32)[C@H](O)[C@@H]1O)[C@H]1C[C@@H](CCc2nc3cc(C4(C#N)CC4)ccc3[nH]2)C1` [Compound 137, 1-(2-(2-((1S,3r)-3-((((2R,3S,4R,5R)-5-(6-amino-9H-purin-9-yl)-3,4-dihydroxytetrahydro-furan-2-yl)methyl)(methyl)amino)cyclobutyl)ethyl)-1H-benzo[d]imidazol-5-yl)cyclo-propanecarbonitrile] it was less than 100 nM.
Next, `CN(C[C@H]1O[C@@H](n2cnc3c(N)ncnc32)[C@H](O)[C@@H]1O)[C@H]1C[C@H](CCc2nc3cc(C4(C#N)CC4)ccc3[nH]2)C1` [Compound 138, 1-(2-(2-((1R,3s)-3-((((2R,3S,4R,5R)-5-(6-amino-9H-purin-9-yl)-3,4-dihydroxytetrahydro-furan-2-yl)methyl)(methyl)amino)cyclobutyl)ethyl)-1H-benzo[d]imidazol-5-yl)cyclo-propanecarbonitrile]: less than 100 nM; `CC(C)N(C[C@H]1O[C@@H](n2cnc3c(N)ncnc32)[C@H](O)[C@@H]1O)C1CC(CCc2nc3cc(C4(C)CC4)ccc3[nH]2)C1` (stereo partly drawn) [Compound 139, (2R,3R,4S,5R)-2-(6-amino-9H-purin-9-yl)-5-((isopropyl(3-(2-(5-(1-methylcyclopropyl)-1H-benzo[d]imidazol-2-yl)ethyl)cyclobutyl)amino)methyl)tetrahydro-furan-3,4-diol]: less than 100 nM.
`COCC(C)(C)c1ccc2[nH]c(CCC3CC(N(C)C[C@H]4O[C@@H](n5cnc6c(N)ncnc65)[C@H](O)[C@@H]4O)C3)nc2c1` (stereo partly drawn) [Compound 140, (2R,3R,4S,5R)-2-(6-amino-9H-purin-9-yl)-5-(((3-(2-(5-(1-methoxy-2-methylpropan-2-yl)-1H-benzo[d]imidazol-2-yl)ethyl)cyclobutyl) (methyl)amino)methyl) tetrahydrofuran-3,4-diol]: the IC50 was less than 100 nM.
